One block for each compound: values may come before it. Where a SMILES comes first, the peptide text is derived from it.
How the values were obtained:
Calpain I [1] = molecular target: T1, Calpain I (Homo sapiens, UniProt P07384); assay: Calpain I 14C-methylated casein proteolysis (Table 1A); type: biochemical
T1 sequence (P07384 1-714): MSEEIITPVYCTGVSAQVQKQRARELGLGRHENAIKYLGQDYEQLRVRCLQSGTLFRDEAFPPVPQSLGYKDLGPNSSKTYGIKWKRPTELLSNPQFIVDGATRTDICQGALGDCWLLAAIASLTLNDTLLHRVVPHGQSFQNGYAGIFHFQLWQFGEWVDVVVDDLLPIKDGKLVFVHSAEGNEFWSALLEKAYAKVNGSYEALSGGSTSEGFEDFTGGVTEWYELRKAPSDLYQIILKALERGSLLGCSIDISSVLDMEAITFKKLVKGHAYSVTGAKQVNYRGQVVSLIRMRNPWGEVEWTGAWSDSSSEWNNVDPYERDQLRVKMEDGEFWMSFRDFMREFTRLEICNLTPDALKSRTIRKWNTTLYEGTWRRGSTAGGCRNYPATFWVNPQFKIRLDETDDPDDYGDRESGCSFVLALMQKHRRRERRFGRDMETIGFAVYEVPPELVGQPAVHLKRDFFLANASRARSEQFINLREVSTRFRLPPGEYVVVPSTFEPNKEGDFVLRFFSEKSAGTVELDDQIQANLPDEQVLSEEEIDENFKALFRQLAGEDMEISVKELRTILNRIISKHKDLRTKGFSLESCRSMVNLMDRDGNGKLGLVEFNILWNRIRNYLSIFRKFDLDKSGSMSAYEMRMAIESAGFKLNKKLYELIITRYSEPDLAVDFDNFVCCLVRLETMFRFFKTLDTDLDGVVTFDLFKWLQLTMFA
T1 sequence (P04632 1-268 partner): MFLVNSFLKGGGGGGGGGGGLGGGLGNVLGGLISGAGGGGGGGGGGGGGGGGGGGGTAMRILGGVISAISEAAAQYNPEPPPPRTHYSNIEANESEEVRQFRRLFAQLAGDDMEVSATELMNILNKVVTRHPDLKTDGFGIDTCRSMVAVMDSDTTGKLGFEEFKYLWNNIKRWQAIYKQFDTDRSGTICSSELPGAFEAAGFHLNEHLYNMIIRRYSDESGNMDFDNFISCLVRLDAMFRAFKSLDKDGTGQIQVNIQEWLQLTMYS
Description: (§1) The isocoumarins are irreversible inhibitors of Calpain. We obtained IC50 values for a variety of these Calpain Inhibitors as a kinetic analysis of these compounds.
(§2) Calpains I and II were purified by the method of (Yoshimura, et al. 1983). (Kitahara 1984) provides an alternative purification scheme. Calpain II may alternatively be purchased from Sigma Chemical Co. as "Calcium Activated Neutral Protease." In this assay, purified Calpain was incubated with ^14 C-methylated casein in the presence of various Heterocyclic Compounds and the amount of acid-soluble radioactivity released by the action of Calpain was measured.

Calpain II [2] = molecular target: T2, Calpain II (Homo sapiens, UniProt P17655); assay: Calpain II 14C-methylated casein proteolysis (Table 1A); type: biochemical
T2 construct: from tissue; purified by a cited method
T2 sequence (P17655 1-700): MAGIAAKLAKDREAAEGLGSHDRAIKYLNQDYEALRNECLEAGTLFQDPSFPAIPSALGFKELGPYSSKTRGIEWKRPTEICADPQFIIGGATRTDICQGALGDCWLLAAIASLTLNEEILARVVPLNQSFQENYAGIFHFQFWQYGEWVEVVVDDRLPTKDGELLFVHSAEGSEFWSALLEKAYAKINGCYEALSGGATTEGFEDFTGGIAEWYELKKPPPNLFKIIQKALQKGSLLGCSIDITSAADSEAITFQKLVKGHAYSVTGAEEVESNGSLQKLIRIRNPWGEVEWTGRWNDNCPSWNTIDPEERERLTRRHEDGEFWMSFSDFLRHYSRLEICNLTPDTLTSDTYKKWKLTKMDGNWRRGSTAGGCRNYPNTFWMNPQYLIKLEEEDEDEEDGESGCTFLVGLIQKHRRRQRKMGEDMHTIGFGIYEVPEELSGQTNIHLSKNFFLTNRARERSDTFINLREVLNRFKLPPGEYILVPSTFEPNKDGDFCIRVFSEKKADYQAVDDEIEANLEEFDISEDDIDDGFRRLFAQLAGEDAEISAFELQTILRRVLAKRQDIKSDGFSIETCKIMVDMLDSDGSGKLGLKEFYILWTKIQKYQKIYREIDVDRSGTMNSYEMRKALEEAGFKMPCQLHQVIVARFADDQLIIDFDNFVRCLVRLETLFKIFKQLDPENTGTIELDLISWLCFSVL
T2 sequence (P04632 1-268 partner): T1 sequence (P04632 1-268 partner)
Description: as §1, §2

[3] = test system: Calpain in crude brain extracts; assay: Ca2+-stimulated spectrin proteolysis in crude brain extracts (Example 2); type: biochemical; details: 100 μM
Outline: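 Brain tissue was homogenized in 10 mM Tris pH 7.4, 0.32 M sucrose, 1 mM EGTA and 1 mM DTT, and nuclei and debris were removed. Calpain activity was scored as Ca^2+-stimulated proteolysis of endogenous spectrin.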

Calpain within platelets = assay: Platelet membrane permeation assay, spectrin proteolysis (Examples 4A, 4B); type: cell-based, rat; details: for inhibition of Calpain within platelets: 100 μM, A23187 1 μM; for IC50: concentration at which 50% of the Calpain activation present in controls occurred
Outline: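 Rat (Sprague-Dawley) platelets at 10^7 cells/ml in HEPES buffer pH 7.4, preincubated 5 min with inhibitor, then 5 min with 1 μM A23187 to activate calpain. Spectrin proteolysis assessed by SDS-PAGE and anti-spectrin immunoblot, quantified by densitometry.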

Calpain = assay: Kapp/[I] of other irreversible Calpain Inhibitors; type: biochemical
Text: The kinetic constants of other irreversible Calpain Inhibitors include the following with Kapp /[I] in parentheses: E-64 (7500), E64-d (23000) and Z-leu-leu-tyr-CHN2 (230000). E-64 is commercially available from Sigma Chemical Co., and is shown here to be a poor inhibitor of Calpain.

[4] = molecular target: T3, Calpain I from human erythrocytes (Homo sapiens, UniProt P07384); assay: Calpain I Ki (Table 1B(i)); type: biochemical; details: Suc-Leu-Tyr-amidomethylcoumarin, HEPES pH 7.2
T3 construct: Calpain I from human erythrocytes and calpain II from rabbit were assayed using Suc-Leu-Tyr-AMC; from tissue; host or cells: human erythrocytes
T3 sequence (P07384 1-714): T1 sequence (P07384 1-714)
T3 sequence (P04632 1-268 partner): T1 sequence (P04632 1-268 partner)
Description: The Peptide Keto-Compounds are reversible inhibitors of Calpains and other thiol proteases. […] Cathepsin B from bovine spleen was assayed using Z-Lys-4-nitrophenylphosphate as substrate.
The Ki value for the inhibition of Calpains and cathepsin B by several Peptide Keto-Compounds are shown in μM (micromolar). The values for leupeptin, which is commercially available from Calbiochem of La Jolla, Calif., are shown for comparison.

Chym = Chym (Bos taurus, UniProt P00766); assay: Chym KI (Table 1B(ii)); type: biochemical
Text: (§3) We tested the ability of an additional group of Peptide Keto-Compounds to inhibit several proteases in order to evaluate their specificity for Calpain.

Calpain II [5] = assay: Calpain II KI (Table 1B(ii)); type: biochemical
Text: as §3

[6] = Stability in liver homogenates; type: in vitro ADME; details: unit assumed
Text: (§4) We determined the haft-life of several Peptide Keto-Compounds in both plasma and liver homogenates.

Calpain I [7] = molecular target: T1, Calpain I; assay: Calpain I KI (Table 1B(ii)); type: biochemical; details: for Ki: Table 1B(ii)
Text: as §3

[8] = test system: rats with middle cerebral artery occlusion; assay: MCA occlusion model (Example 6); type: in vivo, rat; details: infusion into femoral vein by 24 hr minipump; 24 hours after occlusion (FIG. 2)
Description: Male Sprague-Dawley albino rats weighing approximately 250-300 grams were anesthetized with pentobarbital (70 mg/kg, i.p.). The neck region was shaven and a 2 cm incision was made. The superficial fascia was teased away with tissue forceps and blunt tip tissue scissors using a spread method. The right common carotid artery was isolated away from the vagus nerve and tied off with a single suture (3.0 silk). The external carotid was permanently occluded by suturing. The bifurcation of the internal carotid and pterygopalatine arteries was exposed and a single microaneurysm clip was placed on the pterygopalatine. Another microaneurysm clip was placed on the common carotid just proximal to the external/internal bifurcation. A suture was placed loosely around the common carotid and a lumen was made in the vessel with the tip of a 25 g needle. A 40 mm nylon suture was prepared by melting the tip to smooth the pointed end and marked with a dot exactly 17.5 mm from the melted end. […]
Twenty-four hours after occlusion, the brains of these animals were removed and sliced into 2 mm sections. […] The sizes of the infarcted tissue zone ([…]) and impaired zone (area with partial development of red color) were evaluated using quantitative morphometry. […]

Cathepsin B = Cathepsin B (Bos taurus, UniProt P07688); assay: Cathepsin B KI (Table 1B(ii)); type: biochemical; details: read-out: KI CathB
Text: as §3

Stability in plasma = type: in vitro ADME; details: unit assumed
Text: as §4

PP Elastase = PP Elastase (Sus scrofa, UniProt P00772); assay: PP Elastase KI (Table 1B(ii)); type: biochemical
Text: as §3

hippocampal slices = assay: Hippocampal slice EPSP recovery from severe hypoxia (FIG. 5); type: cell-based, rat; details: one hour incubation
Description: These studies were performed in a manner similar to that of Example 7B, except using a hypoxic environment in place of the anoxia of Example 7B. […] The control slices experienced little or no recovery.

Sequence of PP Elastase (P00772 27-266): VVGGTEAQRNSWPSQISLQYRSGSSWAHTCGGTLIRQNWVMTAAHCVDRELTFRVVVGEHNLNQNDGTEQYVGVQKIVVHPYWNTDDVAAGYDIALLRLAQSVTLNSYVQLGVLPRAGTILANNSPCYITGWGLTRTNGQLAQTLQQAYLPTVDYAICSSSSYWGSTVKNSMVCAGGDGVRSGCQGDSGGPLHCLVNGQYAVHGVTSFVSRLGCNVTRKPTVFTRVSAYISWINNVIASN

Ki [4]: 200 µM
Structure (SMILES): COC(=O)C(=O)C(C)NC(=O)C(C)NC(=O)C(C)NC(=O)OCc1ccccc1 (stereo not drawn) [Z-Ala-Ala-Ala-CO2 Me]

Ki (Chym): > 150 µM
Ki (Calpain II [5]): 0.23 µM
t1/2 liver [6]: > 1 h
Ki (Calpain I [7]): 0.5 µM
better inhibitor of calpain I than Z-Leu-Phe-CONH-Et (Calpain I [7]; ratio of KI values): 14 fold
Ki (Cathepsin B): 2.4 µM
t1/2 plasma (Stability in plasma): > 1 h
Ki (PP Elastase): 65 µM
IC50 (Calpain within platelets): 1.5 µM
Structure (SMILES): CCNC(=O)C(=O)[C@H](CC)NC(=O)[C@H](CC(C)C)NC(=O)OCc1ccccc1 [Z-Leu-Abu-CONHEt, Z-Leu-Abu-CONH-Et]
size of infarcted area [8]: reduction in the size of the infarcted area

Ki (Chym): 73 µM
Ki (Calpain II [5]): 0.32 µM
t1/2 liver [6]: > 1 h
Ki (Calpain I [7]): 7 µM
Ki (Cathepsin B): 6 µM
t1/2 plasma (Stability in plasma): > 1 h
Ki (PP Elastase): > 150 µM
IC50 (Calpain within platelets): 1.7 µM
Structure (SMILES): CCNC(=O)C(=O)[C@H](Cc1ccccc1)NC(=O)[C@H](CC(C)C)NC(=O)OCc1ccccc1 [Z-Leu-Phe-CONHEt, Z-Leu-Phe-CONH-Et]
size of infarcted area [8]: reduction in the size of the infarcted area
percent recovery of EPSP from severe hypoxia (FIG. 5) (hippocampal slices): ~100%

Second part, the compound before the results:

Structure (SMILES): CC(C)(C)OC(=O)N[C@@H](Cc1ccccc1)C(=O)Nc1ccc2c(Cl)c(OCCCSC(=N)N)oc(=O)c2c1 [BOC-L-Phe-NH-CiTPrOIC, 7-(N-t-butyloxycarbonyl-L-phenylalanylamino)-4-chloro-3-(3-isothiureidopropoxy)isocoumarin]
IC50 Calpain I (Calpain I [1]): no inhibition
IC50 (Calpain II [2]): > 200 µM

Structure (SMILES): CC(=O)Nc1ccc2c(Cl)c(OCCCSC(=N)N)oc(=O)c2c1 [CH3 CONH-CiTPrOIC, 7-(acetylamino)-4-chloro-3-(3-isothiureidopropoxy)isocoumarin]
IC50 (Calpain I [1]): 700 µM
inhibition of spectrin proteolysis in crude brain extracts [3]: significant inhibition
IC50 (Calpain II [2]): 80 µM
inhibition of Calpain within platelets (Calpain within platelets): significant inhibition

Structure (SMILES): CCOC(=O)[C@H]1O[C@@H]1C(=O)N[C@@H](CC(C)C)C(=O)NCCC(C)C [Example E64-d, Loxastatin]
Kapp/[I] Calpain (Calpain): 23000

Structure (SMILES): CC(C)C[C@H](NC(=O)[C@H]1O[C@@H]1C(=O)O)C(=O)NCCCCN=C(N)N [Example E-64, E-64, reference compound]
Kapp/[I] Calpain (Calpain): 7500
effect on intracellular (platelet) Calpain (Calpain within platelets; concentration not given): little effect

Structure (SMILES): N=C(N)SCCCOc1oc(=O)c2cc(NC(=O)NCc3ccccc3)ccc2c1Cl [PhCH2 NHCONH-CiTPrOIC, 7-(benzylcarbamoylamino)-4-chloro-3-(3-isothiureidopropoxy)isocoumarin]
IC50 (Calpain I [1]): 80 µM
inhibition of spectrin proteolysis in crude brain extracts [3]: significant inhibition
IC50 (Calpain II [2]): 30 µM
inhibition of Calpain within platelets (Calpain within platelets): significant inhibition

Structure (SMILES): CC(C)C[C@H](NC(=O)OCc1ccccc1)C(=O)N[C@@H](CC(C)C)C(=O)N[C@@H](Cc1ccc(O)cc1)C(=O)C=[N+]=[N-] [Z-leu-leu-tyr-CHN2] (HELM PEPTIDE1{[O=C(OCc1ccccc1)[*:2]].L.L.Y.[[N-]=[N+]=C[*:1]]}$$$$V2.0)
Kapp/[I] Calpain (Calpain): 230000
